Tests used:
hPIEZO1 = target: T1, hPIEZO1 (Homo sapiens, UniProt Q92508); experiment: Intracellular Ca2+ measurement (Fura-2) in hPIEZO1-TREx cells; format: cell-based; settings: for Peak ΔCa2+i (ΔF340/380), median fold difference compared to Yoda1: 10 μM compound, hPIEZO1-TREx cells, paired with 10 μM Yoda1; for Ability to evoke intracellular Ca2+ elevation: 10 μM, cells overexpressing hPIEZO1, compared with Yoda1
T1 construct: expressed in transfected cells
Excerpt: HEK T‐REx™ 293 cells (Thermo Fisher Cat #R71007, RRID:CVCL_D585) that overexpress hPIEZO1 upon induction with tetracycline were generated as previously described (Rode et al., [2017]). PIEZO1‐GFP was used as a PCR template to clone hPIEZO1 coding sequence into pcDNA™4/TO between HindIII and EcoRI restriction sites. PIEZO1 was amplified as two fragments using the following primers: (HindIII‐PIEZO1‐Fw: […] and BamHI‐Int.PIEZO1‐Rv: […]) and (BamHI‐Int. PIEZO1‐Fw: […] and EcoRI‐PIEZO1‐Rv: […]). The two fragments were fused using BamHI restriction site, resulting in the full‐length PIEZO1 coding sequence with the c4182a silent mutation. HEK T‐REx™ 293 cells (Invitrogen) were transfected with pcDNA4/TO‐PIEZO1 using Lipofectamine 2000 (Thermo Fisher Scientific). Subsequently, cells were treated with 10 μg·ml^−1 blasticidin and 200 μg·ml^−1 zeocin (InvivoGen) to select stably transfected cells. Single‐cell clones were isolated and analysed individually. Expression was induced by treating the cells for 24 h with 10 ng·ml^−1 tetracycline and analysed by quantitative RT‐PCR and Western blot. These cells are referred to as hPIEZO1‐TREx.
(§1) HEK 293‐TREx cells and their stably transfected derivatives or transiently transfected HEK 293 or HeLa cells were seeded at a density of 7.5 × 10^4 cells per well into poly‐D‐lysine‐coated 96‐well plates. The plates were either commercially pre‐coated with poly‐D‐lysine (Greiner Bio‐One #655946) or (Greiner Bio‐One #655090) were coated in‐house with 35 μl of a 10 μg·ml^−1 poly‐D‐lysine (Bio‐Techne, Cultrex # 3439‐100‐01) in sterile deionised water per well for at least 24 h and rinsed three times with 100 μl per well sterile D‐PBS before addition of cells. HUVECs were seeded into tissue culture‐treated 96‐well plates (Greiner Bio‐One #655090) at a density of either 2.5 × 10^4 cells 24 h before experimentation or 1.25 × 10^4 cells 48 h before experimentation. Cells were incubated with 2 μM Fura‐2‐AM (Molecular Probes™) in the presence of 0.01% (wt./vol.) pluronic F127 (Sigma‐Aldrich #P2443) in standard bath solution (SBS) for 1 h at 37°C. Cells were washed with SBS for 30 min at room temperature. Alternatively, if inhibitors were being tested, these were added at this time, immediately following a wash in SBS. (−)‐Englerin A (Akbulut et al., [2015]) was used in SBS containing 0.01% pluronic acid as a dispersing agent to minimise aggregation of compound. Unless otherwise stated, the final concentration of DMSO was 0.2% (vol./vol). Working 2000× stock solutions of test compounds were freshly made in DMSO and diluted 1000‐fold in SBS during the 30 min SBS wash/inhibitor pre‐incubation period to obtain 2× solutions for injection. When testing the highest concentration of Yoda1, KC159 and KC289 (30 μM), the final DMSO concentration was 0.6% (vol./vol.). Measurements were made at room temperature on a 96‐well fluorescence plate reader (FlexStation 3, Molecular Devices, Sunnyvale, CA, USA) controlled by SoftMax Pro software v7.0.3. Recipient wells containing 80 μl SBS/0.2% (vol./vol.) DMSO vehicle or inhibitor compound received 80 μl 2× compound at an injection rate of 1 μl·s^−1, and the pipette introduced liquids from a height setting of 70 μl. No trituration was performed. For recordings using Fura‐2, the change in intracellular Ca was indicated as the ratio of Fura‐2 emission (510 nm) intensities at 340 and 380 nm excitation. Photomultipliers were set to medium sensitivity. SBS contained 130 mM NaCl, 5 mM KCl, 8 mM D‐glucose, 10 mM HEPES, 1.2 mM MgCl2 and 1.5 mM CaCl2, and the pH was adjusted to 7.4 with NaOH. The solution was filtered through a 0.2 μm bottle‐top filter prior to use and handled aseptically thereafter.
For intracellular Ca^2+ (Ca^2+i) measurements, technical intra‐experiment replicates were used to improve confidence in the data. Analysis of individual experiments was performed to obtain mean ± SEM values. […]

Stability in plasma = format: in vitro ADME; settings: mouse plasma, 1 μM, over 2 h
Experimental: Pooled heparinised mouse plasma was warmed to 37°C for 10 min, mixed and cleared of aggregated protein by centrifugation. Aliquots of the clear supernatant were transferred into the assay plate. Following equilibration to 37°C, biotransformation was initiated by adding and mixing of 1 μM compound solution in a final incubation volume of 300 μl; 25 μl aliquots were removed at 0, 5, 15, 30, 60 and 120 min and quenched in 300 μl ice‐cold acetonitrile containing internal standard. After storing the samples at −20°C for a minimum of 4 h, the protein in the samples was precipitated by centrifugation at 4°C, and the supernatants were analysed by LC–MS/MS to quantify the % input test compound remaining.

mPIEZO1 = target: T2, mPIEZO1 (Mus musculus, UniProt E2JF22); experiment: Intracellular Ca2+ measurement (Fura-2) in mPIEZO1-TREx cells; format: cell-based; settings: for Peak ΔCa2+i (ΔF340/380), median fold difference compared to Yoda1: 10 μM compound, mPIEZO1-TREx cells, paired with 10 μM Yoda1; for Ca2+ response (agonist effect): 10 μM, cells overexpressing mPIEZO1, compared with Yoda1; for EC50: overexpressed mouse PIEZO1, calcium assays
T2 construct: expressed in transfected cells
T2 sequence (E2JF22 whole entry): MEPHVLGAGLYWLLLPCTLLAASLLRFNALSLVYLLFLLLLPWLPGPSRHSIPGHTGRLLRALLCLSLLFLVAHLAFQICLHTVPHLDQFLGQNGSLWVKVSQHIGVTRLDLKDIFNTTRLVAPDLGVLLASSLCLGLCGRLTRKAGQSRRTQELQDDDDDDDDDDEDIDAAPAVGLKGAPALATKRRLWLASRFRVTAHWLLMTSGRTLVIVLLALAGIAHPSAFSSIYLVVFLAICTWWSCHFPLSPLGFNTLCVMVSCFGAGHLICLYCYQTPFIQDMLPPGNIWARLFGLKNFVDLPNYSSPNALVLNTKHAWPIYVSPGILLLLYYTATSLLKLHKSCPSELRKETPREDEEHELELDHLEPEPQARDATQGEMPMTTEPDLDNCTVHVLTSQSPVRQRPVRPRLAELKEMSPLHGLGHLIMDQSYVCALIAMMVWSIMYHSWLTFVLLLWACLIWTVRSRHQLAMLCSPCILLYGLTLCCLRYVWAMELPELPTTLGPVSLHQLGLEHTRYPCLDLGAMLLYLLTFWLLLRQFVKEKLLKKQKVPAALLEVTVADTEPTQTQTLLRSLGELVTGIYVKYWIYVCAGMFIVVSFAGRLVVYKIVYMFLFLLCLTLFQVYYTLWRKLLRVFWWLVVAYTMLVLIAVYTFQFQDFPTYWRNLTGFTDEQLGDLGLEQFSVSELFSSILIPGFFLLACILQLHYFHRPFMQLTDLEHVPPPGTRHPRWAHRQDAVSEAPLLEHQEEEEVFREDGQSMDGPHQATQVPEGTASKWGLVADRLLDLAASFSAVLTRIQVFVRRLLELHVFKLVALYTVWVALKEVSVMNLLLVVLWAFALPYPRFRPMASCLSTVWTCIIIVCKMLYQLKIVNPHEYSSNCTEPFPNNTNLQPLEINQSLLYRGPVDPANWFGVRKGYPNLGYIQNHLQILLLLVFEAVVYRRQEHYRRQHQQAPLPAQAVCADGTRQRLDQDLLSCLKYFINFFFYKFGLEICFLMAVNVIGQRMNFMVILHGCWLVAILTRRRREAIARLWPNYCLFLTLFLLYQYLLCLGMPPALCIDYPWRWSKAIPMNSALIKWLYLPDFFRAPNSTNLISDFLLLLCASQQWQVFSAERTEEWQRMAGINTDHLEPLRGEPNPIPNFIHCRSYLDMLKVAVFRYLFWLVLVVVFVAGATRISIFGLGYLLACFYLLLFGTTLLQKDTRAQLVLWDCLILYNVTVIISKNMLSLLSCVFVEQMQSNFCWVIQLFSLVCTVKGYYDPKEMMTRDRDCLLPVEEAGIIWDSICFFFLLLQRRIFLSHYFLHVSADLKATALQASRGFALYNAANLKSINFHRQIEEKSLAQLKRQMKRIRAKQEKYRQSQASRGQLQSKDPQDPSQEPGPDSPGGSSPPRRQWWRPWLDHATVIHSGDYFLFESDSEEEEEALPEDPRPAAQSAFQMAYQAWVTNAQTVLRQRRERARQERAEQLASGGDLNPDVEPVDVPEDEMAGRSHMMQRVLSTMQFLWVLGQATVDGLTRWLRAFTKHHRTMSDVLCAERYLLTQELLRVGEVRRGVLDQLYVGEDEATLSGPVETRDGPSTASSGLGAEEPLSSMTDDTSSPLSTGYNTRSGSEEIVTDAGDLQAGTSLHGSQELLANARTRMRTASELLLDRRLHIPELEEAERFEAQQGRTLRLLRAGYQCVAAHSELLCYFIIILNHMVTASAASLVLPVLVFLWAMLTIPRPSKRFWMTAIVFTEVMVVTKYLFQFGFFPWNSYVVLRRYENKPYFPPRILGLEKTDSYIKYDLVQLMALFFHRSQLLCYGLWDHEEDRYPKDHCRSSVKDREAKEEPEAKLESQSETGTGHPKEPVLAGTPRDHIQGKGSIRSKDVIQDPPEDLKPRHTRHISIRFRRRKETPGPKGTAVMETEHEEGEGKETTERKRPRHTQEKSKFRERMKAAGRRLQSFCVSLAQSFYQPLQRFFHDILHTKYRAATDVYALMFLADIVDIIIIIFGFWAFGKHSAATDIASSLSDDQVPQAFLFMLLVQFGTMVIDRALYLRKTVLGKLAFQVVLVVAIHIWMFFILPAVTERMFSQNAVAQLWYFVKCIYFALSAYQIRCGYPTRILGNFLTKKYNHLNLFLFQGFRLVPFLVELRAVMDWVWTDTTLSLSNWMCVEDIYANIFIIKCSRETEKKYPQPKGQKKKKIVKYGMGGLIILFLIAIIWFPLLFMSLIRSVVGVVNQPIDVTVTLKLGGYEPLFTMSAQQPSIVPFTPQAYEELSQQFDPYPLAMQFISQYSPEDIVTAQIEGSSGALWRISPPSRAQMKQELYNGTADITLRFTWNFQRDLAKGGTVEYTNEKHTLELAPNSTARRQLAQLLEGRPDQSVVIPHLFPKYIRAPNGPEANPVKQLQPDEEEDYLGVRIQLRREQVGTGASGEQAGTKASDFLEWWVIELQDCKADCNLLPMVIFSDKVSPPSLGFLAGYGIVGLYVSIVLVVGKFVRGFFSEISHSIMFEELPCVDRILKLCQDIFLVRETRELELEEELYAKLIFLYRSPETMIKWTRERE
Excerpt: HEK T‐REx™ cells that constitutively overexpress murine PIEZO1 were generated as previously described (Blythe et al., [2019]). pcDNA3 mouse PIEZO1 (mPIEZO1) IRES green fluorescent protein (GFP), a gift from Ardem Patapoutian (Coste et al., [2010]), was used as a template to clone the mPIEZO1 coding sequence into pcDNA4/TO. Overlapping mPIEZO1 (forward primer 5′‐[…]‐3′ and reverse primer 5′‐[…]‐3′) and pcDNA4/TO (forward primer 5′‐[…]‐3′ and reverse primer 5′‐[…]‐3′) PCR products were assembled using Gibson Assembly (New England Biolabs). […] HEK T‐REx™ 293 cells were transfected with pcDNA4/TO‐mPIEZO1 using Lipofectamine 2000 (Invitrogen) and treated with 200 μg·ml^−1 zeocin to select stably transfected cells. Individual clones were isolated and analysed for expression using Yoda1 and intracellular Ca^2+ measurements. These cells are referred to as mPIEZO1‐TREx.
as §1
For intracellular Ca^2+ (Ca^2+i) measurements, technical intra‐experiment replicates were used to improve confidence in the data. Analysis of individual experiments was performed to obtain mean ± SEM values. For collated analysis of independent experiments, where normal distributions were not evidenced by Shapiro–Wilk normality tests, non‐parametric distributions were assumed, and therefore, median values were used. […]

T1 sequence (Q92508 whole entry): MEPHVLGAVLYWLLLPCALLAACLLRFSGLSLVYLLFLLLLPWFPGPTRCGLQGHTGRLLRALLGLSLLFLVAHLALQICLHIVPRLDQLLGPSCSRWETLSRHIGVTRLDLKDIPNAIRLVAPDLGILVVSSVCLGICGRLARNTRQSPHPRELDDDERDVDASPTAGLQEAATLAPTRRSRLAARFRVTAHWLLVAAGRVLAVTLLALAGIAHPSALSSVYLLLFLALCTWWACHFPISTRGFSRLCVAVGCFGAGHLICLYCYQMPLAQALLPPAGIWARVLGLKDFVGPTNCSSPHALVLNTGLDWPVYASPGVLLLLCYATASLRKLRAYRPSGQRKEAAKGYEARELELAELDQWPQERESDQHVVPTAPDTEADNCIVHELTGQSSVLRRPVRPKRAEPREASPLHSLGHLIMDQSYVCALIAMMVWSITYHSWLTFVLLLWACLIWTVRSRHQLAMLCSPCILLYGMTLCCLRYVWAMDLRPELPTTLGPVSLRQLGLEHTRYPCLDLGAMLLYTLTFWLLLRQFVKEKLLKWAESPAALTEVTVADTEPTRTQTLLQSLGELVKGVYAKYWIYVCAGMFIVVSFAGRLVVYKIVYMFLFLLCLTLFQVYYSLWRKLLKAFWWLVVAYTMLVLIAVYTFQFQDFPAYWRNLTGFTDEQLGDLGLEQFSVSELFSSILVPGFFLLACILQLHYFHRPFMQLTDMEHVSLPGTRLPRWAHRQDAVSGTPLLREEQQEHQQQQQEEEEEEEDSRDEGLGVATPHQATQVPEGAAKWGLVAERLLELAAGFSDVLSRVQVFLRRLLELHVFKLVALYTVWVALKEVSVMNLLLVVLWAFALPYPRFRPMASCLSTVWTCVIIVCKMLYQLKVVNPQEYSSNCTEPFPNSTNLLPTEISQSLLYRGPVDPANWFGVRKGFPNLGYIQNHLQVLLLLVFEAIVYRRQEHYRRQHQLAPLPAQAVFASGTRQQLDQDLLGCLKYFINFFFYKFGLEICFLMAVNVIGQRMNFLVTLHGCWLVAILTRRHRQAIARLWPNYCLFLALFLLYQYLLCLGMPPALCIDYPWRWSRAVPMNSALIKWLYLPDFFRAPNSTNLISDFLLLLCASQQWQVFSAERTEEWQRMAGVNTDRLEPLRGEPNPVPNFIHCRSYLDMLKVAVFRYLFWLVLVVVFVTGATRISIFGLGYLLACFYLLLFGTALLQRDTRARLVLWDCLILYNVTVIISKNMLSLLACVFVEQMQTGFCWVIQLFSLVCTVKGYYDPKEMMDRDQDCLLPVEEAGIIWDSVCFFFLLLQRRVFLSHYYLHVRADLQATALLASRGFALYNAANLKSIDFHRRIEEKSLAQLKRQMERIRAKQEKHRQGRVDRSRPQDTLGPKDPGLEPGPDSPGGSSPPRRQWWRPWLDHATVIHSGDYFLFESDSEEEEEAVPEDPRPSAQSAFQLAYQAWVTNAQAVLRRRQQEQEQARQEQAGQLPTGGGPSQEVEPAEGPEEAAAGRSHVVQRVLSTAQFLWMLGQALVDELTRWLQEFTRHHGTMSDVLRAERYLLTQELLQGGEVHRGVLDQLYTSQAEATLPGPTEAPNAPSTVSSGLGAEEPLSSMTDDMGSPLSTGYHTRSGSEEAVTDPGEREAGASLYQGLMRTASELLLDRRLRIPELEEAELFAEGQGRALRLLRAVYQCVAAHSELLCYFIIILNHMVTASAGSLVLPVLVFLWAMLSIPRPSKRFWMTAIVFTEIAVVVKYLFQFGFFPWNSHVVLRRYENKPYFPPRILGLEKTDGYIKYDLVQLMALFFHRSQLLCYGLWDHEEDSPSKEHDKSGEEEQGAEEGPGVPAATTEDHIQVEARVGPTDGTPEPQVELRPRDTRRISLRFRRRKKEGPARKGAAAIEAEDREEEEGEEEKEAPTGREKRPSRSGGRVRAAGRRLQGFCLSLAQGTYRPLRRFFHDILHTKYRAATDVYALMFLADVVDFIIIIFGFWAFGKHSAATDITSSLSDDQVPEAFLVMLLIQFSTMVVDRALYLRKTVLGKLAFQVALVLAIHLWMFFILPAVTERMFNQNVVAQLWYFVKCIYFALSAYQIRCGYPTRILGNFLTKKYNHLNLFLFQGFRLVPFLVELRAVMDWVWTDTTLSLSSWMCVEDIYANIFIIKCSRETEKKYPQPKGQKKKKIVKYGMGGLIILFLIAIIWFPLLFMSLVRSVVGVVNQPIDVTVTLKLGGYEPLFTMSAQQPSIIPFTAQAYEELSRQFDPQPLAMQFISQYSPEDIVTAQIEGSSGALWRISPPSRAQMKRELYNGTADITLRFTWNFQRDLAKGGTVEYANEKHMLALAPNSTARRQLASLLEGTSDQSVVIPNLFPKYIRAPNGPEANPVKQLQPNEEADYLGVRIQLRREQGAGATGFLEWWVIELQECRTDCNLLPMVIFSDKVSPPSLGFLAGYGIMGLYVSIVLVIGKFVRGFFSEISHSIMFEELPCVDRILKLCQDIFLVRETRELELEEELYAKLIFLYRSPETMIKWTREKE

Structure (SMILES) | Peak ΔCa2+i (ΔF340/380), median fold difference compared to Yoda1 (hPIEZO1) | Ability to evoke intracellular Ca2+ elevation (hPIEZO1) | Plasma stability (Stability in plasma) | Peak ΔCa2+i (ΔF340/380), median fold difference compared to Yoda1 (mPIEZO1) | Ca2+ response (agonist effect) (mPIEZO1) | Potency relative to Yoda1 (mPIEZO1; mPIEZO1, from EC50 values) | EC50 (mPIEZO1) [µM]
O=C([O-])c1ccc(-c2nnc(SCc3c(Cl)cccc3Cl)s2)cc1.[K+] [KC289] | +2.8 fold | robust responses that are larger than those of Yoda1 | good stability over 2 h | +1.2 fold | larger responses than Yoda1 | approximately four times more potent than Yoda1 | 0.15
Clc1cccc(Cl)c1CSc1nnc(-c2cnccn2)s1 [Yoda1, 2‐[5‐[[(2,6‐dichlorophenyl)methyl]thio]‐1,3,4‐thiadiazol‐2‐yl]pyrazine] |  |  | good stability over 2 h |  |  |  | 0.6
O=C(O)c1ccccc1-c1nnc(SCc2c(Cl)cccc2Cl)s1 [KC157] | −24.4 fold |  |  | −70.6 fold | inactive |  | 
O=C(O)c1ccc(-c2nnc(SCc3c(Cl)cccc3Cl)s2)cc1 [KC159] | +1.8 fold | robust responses that are larger than those of Yoda1 | good stability over 2 h | +1.1 fold | larger responses than Yoda1 |  | 0.28

Reference: publication PMC10952572, “Improved PIEZO1 agonism through 4‐benzoic acid modification of Yoda1” (British Journal of Pharmacology, 2023)
